# Experimental data published in US11725001B2, “Bicyclic compound and use thereof” (SK BIOPHARMACEUTICALS CO., LTD., priority 2019, dated 2023).
# Target: PRMT5-MEP50 enzyme complex (Homo sapiens (Human), UniProt O14744)
# Experiment: PRMT5 enzyme activity in vitro assay (methylation of histone H4R3, ELISA absorbance at 450 nm)
# Format: biochemical
# Conditions: SAM, histone H4 peptide, 2 hours at room temperature, 8 points from 10 μM to 0.128 nM
# Protocol: Method for Measuring Enzyme Activity
# In vitro assay: PRMT5-MEP50 enzyme complex, cofactor S-adenosylmethionine (SAM) and histone H4 peptide were reacted in vitro, and methylation of arginine (H4R3)—which is the third amino acid of histone H4—was measured in order to measure the enzyme activity of PRMT5.
# S-adenosylmethionine was purchased from NEB (New England Biolabs, USA, Catalog No. B9003S).
# Experimental procedure: The histone H4 peptide was diluted with carbonate-bicarbonate buffer and prepared to 100 μg/mL, and then dispensed onto the plate per 100 μL and reacted at 37° C. for 1 hour. PRMT5-MEP50 enzyme complex and S-adenosylmethionine were diluted with histone methyltransferase reaction buffer to prepare 5 μg/mL and 2 μM, respectively, and then 20 μL of PRMT5-MEP50 enzyme complex and 25 μL of S-adenosylmethionine were dispensed onto the plate prepared above. 5 μL of the compound diluted with 10% dimethyl sulfoxide solution was added thereto and reacted at room temperature for 2 hours (final volume=50 μL). […] After preparing the primary antibody by diluting 1:2000 with blocking buffer, 100 μL was added to the plate and reacted at room temperature for 1 hour. […] Then, the absorbance at 450 nm was measured to calculate the IC50 value of the compound. […]
# Chain of PRMT5-MEP50 enzyme complex (O14744 2-637): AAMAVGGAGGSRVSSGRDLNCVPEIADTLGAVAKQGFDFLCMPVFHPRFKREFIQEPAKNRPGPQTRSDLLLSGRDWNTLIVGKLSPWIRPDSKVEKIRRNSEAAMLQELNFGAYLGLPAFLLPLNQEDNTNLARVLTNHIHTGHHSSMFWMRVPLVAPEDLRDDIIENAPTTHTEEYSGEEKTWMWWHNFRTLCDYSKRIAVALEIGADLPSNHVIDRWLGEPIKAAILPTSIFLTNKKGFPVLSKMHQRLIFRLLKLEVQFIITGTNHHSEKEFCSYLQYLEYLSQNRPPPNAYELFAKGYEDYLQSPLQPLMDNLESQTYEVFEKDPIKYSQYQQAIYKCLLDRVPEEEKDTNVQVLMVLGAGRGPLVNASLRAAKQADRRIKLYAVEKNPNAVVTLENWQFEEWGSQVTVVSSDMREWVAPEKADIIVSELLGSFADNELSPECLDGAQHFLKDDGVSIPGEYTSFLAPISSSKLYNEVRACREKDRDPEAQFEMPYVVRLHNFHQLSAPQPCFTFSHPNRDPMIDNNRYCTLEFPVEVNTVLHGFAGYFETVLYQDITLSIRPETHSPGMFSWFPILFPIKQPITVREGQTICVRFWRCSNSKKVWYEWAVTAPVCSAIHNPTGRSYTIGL
# Chain of PRMT5-MEP50 enzyme complex (Q9BQA1 2-342 partner): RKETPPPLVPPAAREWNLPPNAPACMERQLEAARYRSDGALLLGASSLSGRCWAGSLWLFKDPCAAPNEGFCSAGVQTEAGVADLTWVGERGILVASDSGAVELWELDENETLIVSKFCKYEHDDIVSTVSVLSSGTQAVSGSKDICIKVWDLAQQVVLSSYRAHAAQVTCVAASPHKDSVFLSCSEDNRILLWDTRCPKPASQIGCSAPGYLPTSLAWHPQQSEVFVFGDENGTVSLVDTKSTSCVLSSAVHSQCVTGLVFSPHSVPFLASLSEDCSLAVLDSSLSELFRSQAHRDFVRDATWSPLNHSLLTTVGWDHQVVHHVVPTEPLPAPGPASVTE
row,SMILES,IC50 [nM]
1,"CCN1C(=O)CN(C[C@H](O)CN2CCc3ccccc3C2)C(=O)c2ccc(Br)cc21 [Example 158, 8-bromo-4-[(2R)-3-(3,4-dihydro-1H-isoquinolin-2-yl)-2-hydroxy-propyl]-1-ethyl-3H-1,4-benzodiazepin-2,5-dione]",100 to 1000
2,"COc1ccc2c(c1)OCCN(CC(O)CN1CCc3ccccc3C1)C2=O (centres unmarked) [Example 1, 4-[3-(3,4-dihydro-1H-isoquinolin-2-yl)-2-hydroxy-propyl]-8-methoxy-2,3-dihydro-1,4-benzoxazepin-5-one]",100 to 1000

# Tested on: SDMA levels in U87MG tumor
# Experiment: Test for in vivo target inhibitory activity (SDMA levels in U87MG tumor)
# Conditions: U87MG tumor implanted subcutaneously in nude mice, oral 25 or 50 mg/kg 1-2 times daily for one week
# Protocol: Test for In Vivo Target Inhibitory Activity
# After U87MG tumor cells were implanted subcutaneously in nude mice, a PRMT5 inhibitor was administered orally (25 or 50 mg/kg) 1-2 times daily for one week, and then the degree to which SDMA levels in the tumor decreased was measured.
# Reagents: Bradford's solution (Catalog No. 500-0006) was purchased from Bio-rad (USA). SDMA antibody (Catalog No. 13222s) was purchased from Cell Signaling Technology (USA). SmD3 antibody (Catalog No. ap12451a) was purchased from Abgent (USA), and secondary antibody (Catalog No. ab6721) and TMB substrate (Catalog No. ab210902) were purchased from Abcam (UK).
# Experimental procedure: The tumor tissues transplanted into the mice were excised, the cells were lysed, and then quantified with Bradford's solution. 5-10 μg of protein per sample was diluted with carbonate-bicarbonate buffer and dispensed into a 96-well plate and reacted at room temperature for 2 hours. After washing with phosphate buffered saline (PBST) containing 0.05% Tween-20 3 times, 200 μL of PBST containing 5% bovine serum albumin (BSA-PBST) was added and reacted at room temperature for 2 hours. After washing with PBST 3 times, the SDMA antibody and the SmD3 antibody were diluted in BSA-PBST, and 100 μL of each was dispensed onto the plate and reacted at 4° C. overnight. After washing with PBST 3 times the next day, 100 μL of the secondary antibody diluted in BSA-PBST was added and reacted at room temperature for 1 hour. After washing with PBST 3 times, 100 μL of TMB substrate was added and reacted at room temperature for 10-20 minutes, and 100 μL of 1N sulfuric acid solution was added to terminate the reaction. Then, the absorbance at 450 nm was measured to calculate the degree of SDMA inhibition by the compound. (+++: more than 70%, ++: more than 30% and 70% or less, +: 30% or less)
row,SMILES,SDMA inhibition (%)
1,"CN1CCC(Oc2ccc3c(c2)OC(C)(C)CN(C[C@H](O)CN2CCc4ccccc4C2)C3=O)CC1 [Example 112, 4-[(2R)-3-(3,4-dihydro-1H-isoquinolin-2-yl)-2-hydroxy-propyl]-2,2-dimethyl-8-[(1-methyl-4-piperidyl)oxy]-3H-1,4-benzoxazepin-5-one]",+++ (+++: more than 70%)
2,"O=C1c2ccc(Br)cc2CCCN1C[C@H](O)CN1CCc2ccccc2C1 [Example 155, 7-bromo-2-[(2R)-3-(3,4-dihydro-1H-isoquinolin-2-yl)-2-hydroxy-propyl]-4,5-dihydro-3H-2-benzazepin-1-one]",+ (+: 30% or less)
3,"CCN1CCC(Oc2ccc3c(c2)OCCN(C[C@H](O)CN2CCc4ccccc4C2)C3=O)CC1 [Example 88, 4-[(2R)-3-(3,4-dihydro-1H-isoquinolin-2-yl)-2-hydroxy-propyl]-8-[(1-ethyl-4-piperidyl)oxy]-2,3-dihydro-1,4-benzoxazepin-5-one]",+++ (+++: more than 70%)
4,"CN1CCC(Oc2ccc3c(c2)OCCN(C[C@H](O)CN2CCc4ccccc4C2)C3=O)CC1 [Example 87, 4-[(2R)-3-(3,4-dihydro-1H-isoquinolin-2-yl)-2-hydroxy-propyl]-8-[(1-methyl-4-piperidyl)oxy]-2,3-dihydro-1,4-benzoxazepin-5-one]",+++ (+++: more than 70%)
5,"O=C1c2ccc(OC3CCN(C4COC4)CC3)cc2OCCN1C[C@H](O)CN1CCc2ccccc2C1 [Example 92, 4-[(2R)-3-(3,4-dihydro-1H-isoquinolin-2-yl)-2-hydroxy-propyl]-8-[[1-(oxetan-3-yl)-4-piperidyl]oxy]-2,3-dihydro-1,4-benzoxazepin-5-one]",+++ (+++: more than 70%)
6,"O=C1c2ccc(CN3CCOCC3)cc2OCCN1C[C@H](O)CN1CCc2ccccc2C1 [Example 22, 4-[(2R)-3-(3,4-dihydro-1H-isoquinolin-2-yl)-2-hydroxy-propyl]-8-(morpholinomethyl)-2,3-dihydro-1,4-benzoxazepin-5-one]",+++ (+++: more than 70%)
